# In patent EP0402852A1, “Irreversible bombesin antagonists” (priority 1989, dated 1990):
# Like-named read-outs stand apart in the source and are kept apart here. Starred links: 1 amine or outer side, 2 acyl side, 3 side chain; linkers in the order of their positions; H or OH if unused. Non-standard residues stand in square brackets, D forms with d. Residues, ends and D or L forms follow the SMILES beside them. *: point of attachment. X2 = CC(C)C[C@@H](CN[C@@H](CC(C)C)C(N)=O)N*; Carbamoyl(2-ClEt,NO) = O=NN(CCCl)C(=O)*; X1 = O=C(c1ccc(N(CCCl)CCCl)cc1)*; pGlu = O=C1CC[C@@H](C(=O)O)N1; Suc = O=C(CCC(=O)[*:2])[*:1]; Nle = CCCC[C@H](N)C(=O)O; CH2Cl = ClC*
# Key:
# bombesin receptors = molecular target: T1, bombesin receptors (Mus musculus, UniProt P21729); assay: Binding affinity for the bombesin receptors on mouse Swiss 3T3 fibroblasts
# T1 construct: bombesin receptors was determined on mouse Swiss 3T3 fibroblasts; endogenous in cells; host or cells: mouse Swiss 3T3 fibroblasts
# T1 sequence (P21729 whole entry): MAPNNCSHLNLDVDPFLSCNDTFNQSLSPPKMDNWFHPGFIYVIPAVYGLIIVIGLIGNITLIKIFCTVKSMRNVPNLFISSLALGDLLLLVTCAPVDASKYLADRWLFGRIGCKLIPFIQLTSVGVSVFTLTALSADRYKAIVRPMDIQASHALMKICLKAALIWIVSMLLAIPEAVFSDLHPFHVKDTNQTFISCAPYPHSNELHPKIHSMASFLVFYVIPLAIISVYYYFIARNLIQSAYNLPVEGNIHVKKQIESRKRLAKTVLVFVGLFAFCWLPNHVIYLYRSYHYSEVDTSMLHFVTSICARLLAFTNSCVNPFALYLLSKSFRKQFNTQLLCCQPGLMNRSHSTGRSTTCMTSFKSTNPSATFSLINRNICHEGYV
# Procedure: The binding affinity of the compounds of the present invention for the bombesin receptors was determined on mouse Swiss 3T3 fibroblasts (I. Zachary and E. Rozengurt (1985) Proc. Natl. Acad. Sci. USA, 82, 7616-7620) (Table 1).
# [1] = system: p115 protein associated with the bombesin receptor; assay: Phosphorylation of the p115 protein (activation of protein-tyrosin kinase); format: cell-based
# Procedure: Mitogenic effect of bombesin and its analogues were also evaluated as activation of the protein-tyrosin kinase that phosphorylates a 115 KD protein (p115) associated with the bombesin receptor complex (D. Cirillo et al. (1986) Mol.Cell. Biol. 6, 4641- 4649) (Table 3). In addition, exposure to these peptides in the 0.1-50 µM range was associated with significant reduction in the growth of SCLC cell lines (such as NCI-H345, NCI-N592, NCI-H128), as well as of prostatic carcinoma cell lines (such as DU145 and PC3).
# [2] = system: mouse Swiss 3T3 fibroblasts; assay: Mitogenesis: [H³]thymidine incorporation in quiescent, confluent Swiss 3T3 cells; format: cell-based; conditions: for FOLD INCREASE OVER BASAL VALUE: [H³]thymidine incorporation, compound alone
# Procedure: The effect on mitogenesis was determined in quiescent and confluent Swiss 3T3 cells maintained in serum free medium (A.N.Corps et al (1985) Biochem J. 231, 781-785). In a first set of experiments, analogues are given alone or in combination with bombesin. In a second set of experiments, cells are pre-treated with the alkylating peptides, washed, left at 37°C for 24 hours and then challenged with bombesin. In both cases, DNA synthesis was evaluated as [H³]thymidine incorporation (Table 2).
# [3] = binding affinity on mouse Swiss 3T3 fibroblasts, read-out: ID₅₀
# [4] = binding affinity on mouse Swiss 3T3 fibroblasts
compound,measurement,setting,value
"CC(C)C[C@@H](CN[C@@H](CC(C)C)C(N)=O)NC(=O)[C@H](Cc1cnc[nH]1)NC(=O)CNC(=O)[C@@H](NC(=O)[C@H](C)NC(=O)[C@H](Cc1c[nH]c2ccccc12)NC(=O)[C@H](CCC(N)=O)NC(=O)[C@H](CC(N)=O)NC(=O)CNC(=O)[C@H](CC(C)C)NC(=O)[C@H](CCCN=C(N)N)NC(=O)[C@H](CCC(N)=O)NC(=O)[C@@H]1CCC(=O)N1)C(C)C [[Leu¹³Ψ(CH₂-NH)Leu¹⁴]BBS, reference compound] ([pGlu]QRLGNQWAVGH-X2)",IC50,bombesin receptors,214 ± 30 nM
"CCCC[C@H](NC(=O)[C@H](CC(C)C)NC(=O)CNC(=O)[C@@H](NC(=O)[C@H](C)NC(=O)[C@H](Cc1c[nH]c2ccccc12)NC(=O)[C@H](CCC(N)=O)NC(=O)[C@@H](NC(=O)c1ccc(N(CCCl)CCCl)cc1)[C@@H](C)O)C(C)C)C(N)=O [II, 4-(ClC₂CH₂)₂NC₆H₄CO-Thr-Gln-Trp-Ala-Val-Gly-Leu-Nle-NH₂] (X1-TQWAVGL[Nle]-NH2)",IC50,bombesin receptors,438 ± 111 nM
"CSCC[C@H](NC(=O)[C@H](CC(C)C)NC(=O)[C@H](Cc1c[nH]cn1)NC(=O)CNC(=O)[C@@H](NC(=O)[C@H](C)NC(=O)[C@H](Cc1c[nH]c2ccccc12)NC(=O)[C@H](CCC(N)=O)NC(=O)[C@@H](NC(=O)c1ccc(N(CCCl)CCCl)cc1)[C@@H](C)O)C(C)C)C(N)=O [IV, 4-(ClCH₂CH₂)₂NC₆H₄CO-Thr-Gln-Trp-Ala-Val-Gly-His-Leu-Met-NH₂]",IC50,bombesin receptors,0.7 ± 0.2 nM
"CSCC[C@H](NC(=O)[C@H](CC(C)C)NC(=O)CNC(=O)[C@@H](NC(=O)[C@H](C)NC(=O)[C@H](Cc1c[nH]c2ccccc12)NC(=O)[C@H](CCC(N)=O)NC(=O)[C@@H](NC(=O)c1ccc(N(CCCl)CCCl)cc1)[C@@H](C)O)C(C)C)C(N)=O [I, 4-(ClCH₂CH₂)₂NC₆H₄CO-Thr-Gln-Trp-Ala-Val-Gly-Leu-Met-NH₂] (X1-TQWAVGLM-NH2)",IC50,bombesin receptors,1360 ± 266 nM
Spantide [reference compound],IC50,bombesin receptors; [3],11100 nM
same,MINIMAL ACTIVE DOSE,[1],> 10000 nM
"Glp-Gln-Arg-Leu-Gly-Asn-Gln-Trp-Ala-Val-Gly-His-Leu-Met-NH₂ [BBS, reference compound]",ID₅₀,bombesin receptors; [4],12.6 ± 3.8 nM
same,MINIMAL ACTIVE DOSE,[1],3 nM
same,FOLD INCREASE OVER BASAL VALUE,[2]; 5nM,3.0±1
4-(ClCH₂CH₂)₂NC₆H₄CO-Thr-Gln-Trp-Ala-Val-Gly-His(Dnp)-Leu-Met-NH₂ (TQWAVGH; N-mustard benzoyl; His(Dnp)-Leu-Met-NH2; printed: Thr-Gln-Trp-Ala-Val-Gly-His) [III],ID₅₀,bombesin receptors; [4],1815 ± 330 nM
same,MINIMAL ACTIVE DOSE,[1],500 nM
same,% INHIBITION IN THE PRESENCE OF 25nM BBS,"[2]; A: analogues given in combination with BBS, 0.5µM",0%
same,% INHIBITION IN THE PRESENCE OF 25nM BBS,"[2]; A: analogues given in combination with BBS, 5 µM",0%
same,% INHIBITION IN THE PRESENCE OF 25nM BBS,"[2]; B: cells pre-treated with analogues, washed, left at 37°C for 24 h, then challenged with BBS, 0.5µM",51±11%
same,% INHIBITION IN THE PRESENCE OF 25nM BBS,"[2]; B: cells pre-treated with analogues, washed, left at 37°C for 24 h, then challenged with BBS, 5 µM",53+8%
same,FOLD INCREASE OVER BASAL VALUE,[2]; 0.5µM,2.3
same,FOLD INCREASE OVER BASAL VALUE,[2]; 5 µM,3.4
"CCCC[C@H](NC(=O)[C@H](CC(C)C)NC(=O)CNC(=O)[C@@H](NC(=O)[C@H](C)NC(=O)[C@H](Cc1c[nH]c2ccccc12)NC(=O)[C@H](CCC(N)=O)NC(=O)[C@@H](NC(=O)N(CCCl)N=O)[C@@H](C)O)C(C)C)C(N)=O [V, ClCH₂CH₂N(NO)CO-Thr-Gln-Trp-Ala-Val-Gly-Leu-Nle-NH₂] ({Carbamoyl(2-ClEt,NO)}-TQWAVGL[Nle]-NH2)",IC50,bombesin receptors,1340 ± 199 nM
"CCCC[C@H](NC(=O)CCC(=O)N[C@H](C(=O)N[C@@H](CCC(N)=O)C(=O)N[C@@H](Cc1c[nH]c2ccccc12)C(=O)N[C@@H](C)C(=O)N[C@H](C(=O)NCC(=O)N[C@@H](CC(C)C)C(=O)N[C@@H](CCSC)C(N)=O)C(C)C)[C@@H](C)O)C(=O)CCl [VI, CH₃(CH₂)₃CH(COCH₂Cl)NHCO(CH₂)₂CO-Thr-Gln-Trp-Ala-Val-Gly-Leu-Met-NH₂] ({CH2Cl-Nle-Suc}-TQWAVGLM-NH2)",IC50,bombesin receptors; [3],648 ± 290 nM
